# Data as given in publication PMC9297976 (Journal of Applied Toxicology, 2021).
# Key:
# medaka Esr1 (mEsr1) [1] = target: T1, medaka Esr1 (mEsr1) (Oryzias latipes, UniProt P50241); experiment: cell-based; set-up: species or system Japanese medaka (Oryzias latipes)
# T1 sequence (P50241 1-620): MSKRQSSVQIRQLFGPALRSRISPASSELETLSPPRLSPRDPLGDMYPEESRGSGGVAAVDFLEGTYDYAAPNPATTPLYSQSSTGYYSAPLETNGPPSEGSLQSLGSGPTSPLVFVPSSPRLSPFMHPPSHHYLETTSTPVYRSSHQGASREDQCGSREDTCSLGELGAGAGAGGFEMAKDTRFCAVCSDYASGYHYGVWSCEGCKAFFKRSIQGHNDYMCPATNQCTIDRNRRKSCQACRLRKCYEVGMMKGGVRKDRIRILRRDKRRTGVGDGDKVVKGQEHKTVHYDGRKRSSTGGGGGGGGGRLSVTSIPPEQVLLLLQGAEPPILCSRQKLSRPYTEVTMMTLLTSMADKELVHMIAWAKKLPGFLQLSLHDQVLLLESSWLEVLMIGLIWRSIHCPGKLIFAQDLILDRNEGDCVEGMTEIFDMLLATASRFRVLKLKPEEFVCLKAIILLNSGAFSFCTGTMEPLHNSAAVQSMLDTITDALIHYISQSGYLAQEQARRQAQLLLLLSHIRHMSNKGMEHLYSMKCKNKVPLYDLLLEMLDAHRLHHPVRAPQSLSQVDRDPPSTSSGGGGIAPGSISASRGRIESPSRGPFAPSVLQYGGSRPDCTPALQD
# medaka Esr1 (mEsr1) [2] = target: T1, medaka Esr1 (mEsr1); experiment: Medaka Esr1 reporter gene assay, antagonist assay; type: cell-based, Japanese medaka (Oryzias latipes); conditions: E2 spiked at 1.0 nM (B); MAC = 1.0 × 10^−5 M
# medaka ARβ (mArβ) [3] = target: T2, medaka ARβ (mArβ) (Oryzias latipes, UniProt D1MV73); experiment: Medaka ARβ reporter gene assay, agonist assay; type: cell-based, Japanese medaka (Oryzias latipes); conditions: MAC = 1.0 × 10^−5 M
# T2 sequence (D1MV73 1-744): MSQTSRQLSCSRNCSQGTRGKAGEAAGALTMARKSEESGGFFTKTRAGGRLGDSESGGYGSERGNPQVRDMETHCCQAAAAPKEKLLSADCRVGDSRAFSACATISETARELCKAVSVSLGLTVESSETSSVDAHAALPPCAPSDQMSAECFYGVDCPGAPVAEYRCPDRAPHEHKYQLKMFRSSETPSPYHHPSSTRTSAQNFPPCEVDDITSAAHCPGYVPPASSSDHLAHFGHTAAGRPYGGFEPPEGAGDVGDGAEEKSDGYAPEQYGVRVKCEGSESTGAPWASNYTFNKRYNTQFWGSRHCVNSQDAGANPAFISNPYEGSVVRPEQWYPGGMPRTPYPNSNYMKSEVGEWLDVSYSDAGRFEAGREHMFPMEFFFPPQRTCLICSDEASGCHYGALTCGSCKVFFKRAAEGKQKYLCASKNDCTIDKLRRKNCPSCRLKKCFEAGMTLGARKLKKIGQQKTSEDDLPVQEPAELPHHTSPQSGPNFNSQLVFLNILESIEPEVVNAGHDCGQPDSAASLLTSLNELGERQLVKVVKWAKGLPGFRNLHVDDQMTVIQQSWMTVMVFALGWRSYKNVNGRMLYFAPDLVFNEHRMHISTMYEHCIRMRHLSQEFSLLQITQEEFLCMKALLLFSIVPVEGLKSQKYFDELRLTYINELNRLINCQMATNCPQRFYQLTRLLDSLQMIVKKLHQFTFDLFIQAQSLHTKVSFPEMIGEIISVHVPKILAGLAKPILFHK
# medaka ARβ (mArβ) [4] = target: T2, medaka ARβ (mArβ); experiment: Medaka ARβ reporter gene assay, antagonist assay; type: cell-based, Japanese medaka (Oryzias latipes)
# [5] = test system: Japanese medaka (Oryzias latipes); experiment: Fish Short‐Term Reproduction Assay; type: in vivo; conditions: for GSI Female / GSI Male / HSI Female / HSI Male / Length Female / Length Male / Weight Female / Weight Male: completion of exposure
# [6] = 1,009 ng/L measured, 21 d, sig. ↑ vs control
# [7] = measured concentration 112 ng/L
# [8] = measured concentration 272 ng/L
# [9] = measured concentration 1,009 ng/L
smiles,measurement,setting,value
"C[C@]12CC[C@@H]3c4ccc(O)cc4CC[C@H]3[C@@H]1CCC2=O [Chemical E1, Estrone]",EC50,medaka Esr1 (mEsr1) [1],0.0054 µM
same,In vitro positive: Esr,medaka Esr1 (mEsr1) [1]; mode of action in which EC50 or PC10 was obtained in RGA,Esr
same,Antagonistic activity,medaka Esr1 (mEsr1) [2],NE (MAC = 1.0 × 10^−5 M)^(B)
same,Agonistic activity,medaka ARβ (mArβ) [3],NE (MAC = 1.0 × 10^−5 M)
same,IC50,"medaka ARβ (mArβ) [4]; Antagonistic activity IC50, 11‐KT spiked at 50 nM (D)",1.5 µM
same,In vitro positive: aAr,medaka ARβ (mArβ) [4]; mode of action in which IC50 or IC30 was obtained in RGA,aAr
same,Antagonistic activity on mArβ (in words),medaka ARβ (mArβ) [4]; transcriptional activity on mArβ by 11KT,inhibitory potency
same,Fertility rate,"[5]; 29 ng/L measured, 21 d",92 ± 9.8%
same,"Hepatic VTG, female","[5]; 29 ng/L measured, 21 d",652 ± 391 ng/mg‐liver
same,"Hepatic VTG, male","[5]; 29 ng/L measured, 21 d",47.9 ± 54.0 ng/mg‐liver
same,Mortality,"[5]; 29 ng/L measured, 21 d",0.0%
same,"Mortality, number of dead fish","[5]; 29 ng/L measured, 21 d",0
same,Number of fertilized eggs (per female per day),"[5]; 29 ng/L measured, 21 d",17 ± 4.4
same,Number of total eggs (per female per day),"[5]; 29 ng/L measured, 21 d",18 ± 3.2
same,SSC female (joint plates with papillary processes),"[5]; 29 ng/L measured, 21 d",0 ± 0
same,SSC male (joint plates with papillary processes),"[5]; 29 ng/L measured, 21 d",97 ± 14
same,Fertility rate,"[5]; 112 ng/L measured, 21 d",96 ± 1.3%
same,"Hepatic VTG, female","[5]; 112 ng/L measured, 21 d",977 ± 274 ng/mg‐liver
same,"Hepatic VTG, male","[5]; 112 ng/L measured, 21 d",382 ± 351 ng/mg‐liver
same,Mortality,"[5]; 112 ng/L measured, 21 d",0.0%
same,"Mortality, number of dead fish","[5]; 112 ng/L measured, 21 d",0
same,Number of fertilized eggs (per female per day),"[5]; 112 ng/L measured, 21 d",19 ± 2.4
same,Number of total eggs (per female per day),"[5]; 112 ng/L measured, 21 d",19 ± 2.6
same,SSC female (joint plates with papillary processes),"[5]; 112 ng/L measured, 21 d",0 ± 0
same,SSC male (joint plates with papillary processes),"[5]; 112 ng/L measured, 21 d",98 ± 25
same,Fertility rate,"[5]; 272 ng/L measured, 21 d",96 ± 2.8%
same,"Hepatic VTG, female","[5]; 272 ng/L measured, 21 d","1,017 ± 238 ng/mg‐liver"
same,Mortality,"[5]; 272 ng/L measured, 21 d",0.0%
same,"Mortality, number of dead fish","[5]; 272 ng/L measured, 21 d",0
same,Number of fertilized eggs (per female per day),"[5]; 272 ng/L measured, 21 d",16 ± 2.5
same,Number of total eggs (per female per day),"[5]; 272 ng/L measured, 21 d",17 ± 2.5
same,SSC female (joint plates with papillary processes),"[5]; 272 ng/L measured, 21 d",0 ± 0
same,SSC male (joint plates with papillary processes),"[5]; 272 ng/L measured, 21 d",85 ± 14
same,"Hepatic VTG, male","[5]; 272 ng/L measured, 21 d, sig. ↑ vs control","3,649 ± 665 ng/mg‐liver"
same,Fertility rate,"[5]; 1,009 ng/L measured, 21 d",86 ± 3.6%
same,Mortality,"[5]; 1,009 ng/L measured, 21 d",0.0%
same,"Mortality, number of dead fish","[5]; 1,009 ng/L measured, 21 d",0
same,SSC female (joint plates with papillary processes),"[5]; 1,009 ng/L measured, 21 d",0 ± 0
same,SSC male (joint plates with papillary processes),"[5]; 1,009 ng/L measured, 21 d",85 ± 18
same,"Hepatic VTG, female",[5]; [6],"1994 ± 1,480 ng/mg‐liver"
same,"Hepatic VTG, male",[5]; [6],"5,429 ± 687 ng/mg‐liver"
same,Number of total eggs (per female per day),"[5]; 1,009 ng/L measured, 21 d, sig. ↓ vs control",10 ± 2.0
same,"Fecundity, number of total eggs (in words)",[5]; 21 d,statistically significant decrease
same,"LOEC, elevated hepatic VTG in males",[5]; 21 d,272 ng/L
same,LOECREPRO,[5]; LOEC on reproduction (fecundity and/or fertility),1.009 µg/L
same,minimal effective concentration,"[5]; Oryzias latipes, 504 h, read-out: LOECmVTG",0.000272 µg/mL
same,Fertility rate (in words),[5]; chemicals with significant decrease of number of total eggs,no significant effect
same,LOECREPRO (reduction in fecundity or fertility),[5]; concentrations without overt toxicity,1.009 µg/L
same,LOECTOX,[5]; lowest observed effect concentration on mortality,ND (>1.009) μg/L
same,GSI Female,[5]; measured concentration 29 ng/L,10.7 ± 1.4%
same,GSI Male,[5]; measured concentration 29 ng/L,1.15 ± 0.31%
same,HSI Female,[5]; measured concentration 29 ng/L,5.4 ± 0.61%
same,HSI Male,[5]; measured concentration 29 ng/L,2.0 ± 0.28%
same,Length Female,[5]; measured concentration 29 ng/L,33.8 ± 1.0 mm
same,Length Male,[5]; measured concentration 29 ng/L,35.8 ± 1.7 mm
same,Weight Female,[5]; measured concentration 29 ng/L,454 ± 56 mg
same,Weight Male,[5]; measured concentration 29 ng/L,468 ± 85 mg
same,GSI Female,[5]; [7],11.2 ± 1.8%
same,GSI Male,[5]; [7],1.17 ± 0.27%
same,HSI Female,[5]; [7],5.5 ± 0.77%
same,HSI Male,[5]; [7],2.1 ± 0.54%
same,Length Female,[5]; [7],34.3 ± 1.6 mm
same,Length Male,[5]; [7],36.5 ± 1.2 mm
same,Weight Female,[5]; [7],460 ± 86 mg
same,Weight Male,[5]; [7],481 ± 44 mg
same,GSI Female,[5]; [8],11.3 ± 1.0%
same,GSI Male,[5]; [8],0.84 ± 0.32%
same,HSI Female,[5]; [8],6.0 ± 0.76%
same,HSI Male,[5]; [8],2.7 ± 0.38%
same,Length Female,[5]; [8],34.0 ± 1.0 mm
same,Length Male,[5]; [8],36.5 ± 1.3 mm
same,Weight Female,[5]; [8],417 ± 41 mg
same,Weight Male,[5]; [8],464 ± 62 mg
same,GSI Female,[5]; [9],11.4 ± 7.1%
same,GSI Male,[5]; [9],0.48 ± 0.23%
same,HSI Female,[5]; [9],5.1 ± 1.24%
same,HSI Male,[5]; [9],3.5 ± 0.50%
same,Length Female,[5]; [9],34.2 ± 2.1 mm
same,Length Male,[5]; [9],35.9 ± 1.4 mm
same,Weight Female,[5]; [9],443 ± 97 mg
same,Weight Male,[5]; [9],468 ± 54 mg
